Target: T1, h-GABAA α2β2γ1 (Homo sapiens, UniProt P47869+Q8N1C3)
T1 sequence (P47869 29-451): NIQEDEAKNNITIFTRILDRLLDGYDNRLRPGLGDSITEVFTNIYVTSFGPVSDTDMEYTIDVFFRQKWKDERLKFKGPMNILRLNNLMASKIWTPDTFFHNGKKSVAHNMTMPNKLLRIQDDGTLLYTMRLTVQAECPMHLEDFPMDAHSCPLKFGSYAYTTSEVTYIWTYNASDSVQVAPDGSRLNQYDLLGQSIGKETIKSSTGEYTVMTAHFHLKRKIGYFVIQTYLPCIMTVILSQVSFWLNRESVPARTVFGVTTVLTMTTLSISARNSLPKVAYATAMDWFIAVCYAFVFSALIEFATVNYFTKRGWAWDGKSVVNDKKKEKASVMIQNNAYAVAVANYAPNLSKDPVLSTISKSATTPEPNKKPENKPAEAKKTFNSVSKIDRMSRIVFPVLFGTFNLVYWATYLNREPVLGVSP
T1 sequence (P47870 25-512 partner limits assumed): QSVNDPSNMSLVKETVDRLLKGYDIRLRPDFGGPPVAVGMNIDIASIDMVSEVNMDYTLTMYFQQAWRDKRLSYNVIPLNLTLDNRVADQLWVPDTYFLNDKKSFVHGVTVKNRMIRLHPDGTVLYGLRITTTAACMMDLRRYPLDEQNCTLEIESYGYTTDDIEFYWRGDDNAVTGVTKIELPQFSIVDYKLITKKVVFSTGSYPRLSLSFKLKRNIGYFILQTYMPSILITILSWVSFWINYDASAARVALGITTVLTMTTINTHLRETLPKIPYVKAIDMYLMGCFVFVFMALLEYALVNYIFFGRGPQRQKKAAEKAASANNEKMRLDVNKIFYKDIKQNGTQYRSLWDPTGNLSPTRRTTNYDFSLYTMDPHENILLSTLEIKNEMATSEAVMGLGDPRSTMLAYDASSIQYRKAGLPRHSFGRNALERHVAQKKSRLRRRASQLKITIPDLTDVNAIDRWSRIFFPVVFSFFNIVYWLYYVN
T1 sequence (Q8N1C3 36-465): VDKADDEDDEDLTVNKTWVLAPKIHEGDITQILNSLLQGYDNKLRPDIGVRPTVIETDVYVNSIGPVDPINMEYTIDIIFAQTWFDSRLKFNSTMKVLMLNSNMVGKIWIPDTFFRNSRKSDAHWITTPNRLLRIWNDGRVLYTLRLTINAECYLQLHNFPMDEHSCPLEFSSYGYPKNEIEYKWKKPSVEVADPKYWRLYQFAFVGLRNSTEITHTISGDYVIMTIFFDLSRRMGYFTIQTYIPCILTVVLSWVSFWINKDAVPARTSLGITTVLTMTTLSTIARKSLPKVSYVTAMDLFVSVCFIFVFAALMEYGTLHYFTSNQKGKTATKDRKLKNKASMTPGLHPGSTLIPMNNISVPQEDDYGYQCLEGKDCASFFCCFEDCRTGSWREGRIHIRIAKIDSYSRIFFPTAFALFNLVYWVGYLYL
Test: Two-electrode voltage clamp electrophysiology in Xenopus oocytes, modulation of GABA EC20 current
Assay type: cell-based
Design: host or cells: Xenopus laevis oocytes, RNA micro-injection
Details: Table 2; for Efficacy (GABA)%: % modulation of GABA EC20 = 100*(Fold increase−1), compound at approx. 30-fold Ki; for Fold increase h-GABA-A α2β2γ1 oocyte @ 30-fold Ki: compound at approx. 30-fold its Ki α2β2γ1, GABA EC20, Xenopus oocytes
Procedure: Xenopus laevis oocytes at maturation stages V-VJ were used for the expression of cloned mRNA encoding GABAA receptor subunits. Oocytes ready for RNA micro-injection were bought from Ecocyte, Castrop-Rauxel, Germany and stored in modified Barth's medium (composition in mM: NaCl 88, KCl 1, NaHCO3 2.4, HEPES 10, MgSO4 0.82, CaNO3 0.33, CaCl2 0.33, pH=7.5) at 20° C. until the experiment.
Oocytes were plated in 96-well plates for microinjection using the Roboinject automated instrument (MultiChannelSystems, Reutlingen, Germany). Approximately 50 nL of an aqueous solution containing the RNA transcripts for the subunits of the desired GABAA receptor subtype was injected into each oocyte. […] Oocytes were kept in modified Barth's medium (composition in mM: NaCl 88, KCl 1, NaHCO3 […], HEPES 10, MgSO4 0.82, CaNO3 0.33, CaCl2 0.33, pH=7.5) at 20° C. until the experiment.
Electrophysiological experiments were performed using the Roboocyte instrument (MultiChannelSystems, Reutlingen, Germany) on days 3 to 5 after the micro-injection of mRNA. During the experiment the oocytes were constantly superfused by a solution containing (in mM) NaCl 90, KCl 1, HEPES 5, MgCl2 1, CaCl2 1 (pH 7.4). Oocytes were impaled by two glass microelectrodes (resistance: 0.5-0.8 MΩ) which were filled with a solution containing KCl 1M+K-acetate 1.5 M and voltage-clamped to −80 mV. The recordings were performed at room temperature using the Roboocyte two-electrode voltage clamp system (Multichannelsystem). After an initial equilibration period of 1.5 min GABA was added for 1.5 min at a concentration evoking approximately 20% of a maximal current response (EC20). After another rest interval of 2.5 min GABA was again added evoking a response of similar amplitude and shape. […] Current traces were recorded at a digitization rate of 10 Hz during and shortly before and after the GABA application.
Each compound and concentration was tested on at least 3 oocytes. Different oocytes were used for different compound concentrations.
For the analysis, the digitized current traces of the first and second GABA response were superimposed and, if necessary, rescaled to equal maximal amplitudes. The ratio between the two responses during the time interval of test compound application was calculated point by point. The extremum of the resulting “ratio trace” was taken as the efficacy (“Fold increase”) of the compound expressed as “% modulation of GABA EC20” (100*(Fold increase−1)).

SMILES	Efficacy (GABA)% [%]	Fold increase h-GABA-A α2β2γ1 oocyte @ 30-fold Ki
Fc1cccc(F)c1C1=NCc2nnc(-c3ccncn3)n2-c2ccc(Cl)c(Cl)c21 [Example 12, 7,8-dichloro-6-(2,6-difluorophenyl)-1-pyrimidin-4-yl-4H-[1,2,4]triazolo[4,3-a][1,4]benzodiazepine]	49	1.49
Cc1nnc2n1-c1ccc(C(C)(F)F)c(Cl)c1C(c1c(F)cccc1F)=NC2 [Example 22, 7-chloro-8-(1,1-difluoroethyl)-6-(2,6-difluorophenyl)-1-methyl-4H-[1,2,4]triazolo[4,3-a][1,4]benzodiazepine]	86	1.86
Fc1cccc(F)c1C1=NCc2nncn2-c2ccc(I)c(Cl)c21 [Example 34, 7-chloro-6-(2,6-difluorophenyl)-8-iodo-4H-[1,2,4]triazolo[4,3-a][1,4]benzodiazepine]	81	1.81
Fc1cccc(F)c1C1=NCc2nncn2-c2ccc(Br)c(Cl)c21 [Example 7, 8-bromo-7-chloro-6-(2,6-difluorophenyl)-4H-[1,2,4]triazolo[4,3-a][1,4]benzodiazepine]	56	1.56
Fc1cccnc1C1=NCc2nnc(-c3cccnn3)n2-c2ccc(C(F)(F)F)c(Cl)c21 [Example 72, 7-chloro-6-(3-fluoro-2-pyridyl)-1-pyridazin-3-yl-8-(trifluoromethyl)-4H-[1,2,4]triazolo[4,3-a][1,4]benzodiazepine]	630	7.30
Fc1cccnc1C1=NCc2nncn2-c2ccc(Br)c(Cl)c21 [Example 29, 8-bromo-7-chloro-6-(3-fluoro-2-pyridyl)-4H-[1,2,4]triazolo[4,3-a][1,4]benzodiazepine]	105	2.05
Fc1cccnc1C1=NCc2nnc(C3CC3)n2-c2ccc(Br)c(Cl)c21 [Example 77, 8-bromo-7-chloro-1-cyclopropyl-6-(3-fluoro-2-pyridyl)-4H-[1,2,4]triazolo[4,3-a][1,4]benzodiazepine]	66	1.66
Fc1cccnc1C1=NCc2nnc(-c3cccnn3)n2-c2ccc(Br)c(Cl)c21 [Example 45, 8-bromo-7-chloro-6-(3-fluoro-2-pyridyl)-1-pyridazin-3-yl-4H-[1,2,4]triazolo[4,3-a][1,4]benzodiazepine]	828	9.28
CC(F)(F)c1ccc2c(c1Cl)C(c1c(F)cccc1F)=NCc1nncn1-2 [Example 21, 7-chloro-8-(1,1-difluoroethyl)-6-(2,6-difluorophenyl)-4H-[1,2,4]triazolo[4,3-a][1,4]benzodiazepine]	100	2.00
OCc1nnc2n1-c1ccc(Br)c(Cl)c1C(c1c(F)cccc1F)=NC2 [Example 33, [8-bromo-7-chloro-6-(2,6-difluorophenyl)-4H-[1,2,4]triazolo[4,3-a][1,4]benzodiazepin-1-yl]methanol]	80	1.80
Cc1nnc2n1-c1ccc(Cl)c(Cl)c1C(c1ncccc1F)=NC2 [Example 71, 7,8-dichloro-6-(3-fluoro-2-pyridyl)-1-methyl-4H-[1,2,4]triazolo[4,3-a][1,4]benzodiazepine]	99	1.99
Clc1cccnc1C1=NCc2nnc(-c3cccnn3)n2-c2ccc(Br)c(Cl)c21 [Example 47, 8-bromo-7-chloro-6-(3-chloro-2-pyridyl)-1-pyridazin-3-yl-4H-[1,2,4]triazolo[4,3-a][1,4]benzodiazepine]	314	4.14
Fc1ccccc1C1=NCc2nnc(-c3cccnn3)n2-c2ccc(Br)c(Cl)c21 [Example 3, 8-bromo-7-chloro-6-(2-fluorophenyl)-1-pyridazin-3-yl-4H-[1,2,4]triazolo[4,3-a][1,4]benzodiazepine]	113	2.13
COc1ccc2c(c1Cl)C(c1c(F)cccc1F)=NCc1nnc(-c3ccncn3)n1-2 [Example 61, 7-chloro-6-(2,6-difluorophenyl)-8-methoxy-1-pyrimidin-4-yl-4H-[1,2,4]triazolo[4,3-a][1,4]benzodiazepine]	61	1.61
COc1ccc2c(c1Cl)C(c1c(F)cccc1F)=NCc1nnc(C3CC3)n1-2 [Example 79, 7-chloro-1-cyclopropyl-6-(2,6-difluorophenyl)-8-methoxy-4H-[1,2,4]triazolo[4,3-a][1,4]benzodiazepine]	79	1.79
Cn1cc(-c2nnc3n2-c2ccc(C(F)(F)F)c(Cl)c2C(c2ncccc2F)=NC3)cn1 [Example 70, 7-chloro-6-(3-fluoro-2-pyridyl)-1-(1-methylpyrazol-4-yl)-8-(trifluoromethyl)-4H-[1,2,4]triazolo[4,3-a][1,4]benzodiazepine]	78	1.78
Cc1ccc2c(c1Cl)C(c1c(F)cccc1F)=NCc1n[nH]c(=O)n1-2 [Example 16, 7-chloro-6-(2,6-difluorophenyl)-8-methyl-2,4-dihydro-[1,2,4]triazolo[4,3-a][1,4]benzodiazepin-1-one]	68	1.68
Cc1nnc2n1-c1ccc(Br)c(Cl)c1C(c1ncccc1F)=NC2 [Example 24, 8-bromo-7-chloro-6-(3-fluoro-2-pyridyl)-1-methyl-4H-[1,2,4]triazolo[4,3-a][1,4]benzodiazepine]	85	1.85
Fc1ccccc1C1=NCc2nncn2-c2ccc(Br)c(Cl)c21 [Example 8, 8-bromo-7-chloro-6-(2-fluorophenyl)-4H-[1,2,4]triazolo[4,3-a][1,4]benzodiazepine]	58	1.58
Cc1ccc2c(c1Cl)C(c1c(F)cccc1F)=NCc1nnc(C)n1-2 [Example 20, 7-chloro-6-(2,6-difluorophenyl)-1,8-dimethyl-4H-[1,2,4]triazolo[4,3-a][1,4]benzodiazepine]	57	1.57

Source: patent US20230141603A1, “BENZODIAZEPINE DERIVATIVES AS GABA A GAMMA1 PAM” (Hoffmann-La Roche Inc., priority 2021, published 2023)
